Measured values reported in BindingDB's records for patent US12194050 (Richter Gedeon, 2025).

Target: Neuronal acetylcholine receptor subunit alpha-7 (Homo sapiens, UniProt P36544)
Assay: Ca2+ Fluorometry
Method: α7 cells stably expressing human α7 nAchR were cultured in the medium detailed above, and were split twice a week. For the fluorometric measurements of cytosolic Ca2+ ion concentration ([Ca2+]i) cells were seeded in 96-well microplates at a density of 60000 cells/well and maintained overnight in a tissue culture incubator at 37° C. under an atmosphere of 95% air/5% CO2. The plating medium was identical with the culture medium. 50 μl of the growth medium was aspirated with a cell washer (BioTek Elx405UCVWS). Then 50 μl/well Calcium 5 kit diluted 2-fold in assay buffer was added manually using an 8-channel pipette. […] Baseline and agonist-evoked [Ca2+]i-changes were monitored with FlexStation II (Molecular Devices, Sunnyvale, Calif.), a plate reader fluorometer with integrated 8-channel fluid addition capability. Fluorescence measurements were carried out at 37° C. […] Baseline was recorded for 20 seconds followed by agonist stimulation. 50 μl 4× concentrated agonist solution was added to the cells using the pipettor of FlexStation II and fluorescence was monitored for an additional 40 seconds. […] In all experiments, all treatments were measured in multiple wells in parallel, and the mean ΔF/F values were used for analysis.

Sequence of Neuronal acetylcholine receptor subunit alpha-7 (P36544 whole entry): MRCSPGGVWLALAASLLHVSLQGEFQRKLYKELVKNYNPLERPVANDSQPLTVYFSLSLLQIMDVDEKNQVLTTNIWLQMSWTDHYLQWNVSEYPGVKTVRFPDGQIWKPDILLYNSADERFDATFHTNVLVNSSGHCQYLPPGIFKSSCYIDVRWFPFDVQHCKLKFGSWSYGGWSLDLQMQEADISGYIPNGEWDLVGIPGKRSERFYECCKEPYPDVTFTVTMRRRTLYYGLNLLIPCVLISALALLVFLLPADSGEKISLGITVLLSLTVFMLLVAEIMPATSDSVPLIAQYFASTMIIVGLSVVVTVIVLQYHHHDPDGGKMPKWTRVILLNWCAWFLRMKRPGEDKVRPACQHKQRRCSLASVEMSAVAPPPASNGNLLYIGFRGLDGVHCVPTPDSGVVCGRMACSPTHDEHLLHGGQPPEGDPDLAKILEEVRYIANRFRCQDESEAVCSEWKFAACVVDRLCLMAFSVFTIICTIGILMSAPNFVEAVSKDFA

CCN1C(C(=O)Nc2cccc(C(F)(F)F)n2)=CC([C@H]2CC[C@H](C(F)(F)F)CC2)=NS1(=O)=O [US12194050, Example 53]
EC50: 90 nM
